ChEMBL document CHEMBL4507268 (2021)

How the values were obtained:
Settings in all cases: Compound concentration 1000.0 nM
[1] = target: Wee1-like protein kinase 2 (Homo sapiens) (UniProt P0C1S8)
[2] = test system: Receptor-type tyrosine-protein kinase FLT3 (Homo sapiens), P36888 [K663Q]
[3] = test system: Receptor-type tyrosine-protein kinase FLT3 (Homo sapiens), P36888 [UNDEFINED MUTATION]
[4] = target: T1, Serine/threonine-protein kinase 17A (Homo sapiens) (UniProt Q9UEE5)
T1 sequence (whole entry): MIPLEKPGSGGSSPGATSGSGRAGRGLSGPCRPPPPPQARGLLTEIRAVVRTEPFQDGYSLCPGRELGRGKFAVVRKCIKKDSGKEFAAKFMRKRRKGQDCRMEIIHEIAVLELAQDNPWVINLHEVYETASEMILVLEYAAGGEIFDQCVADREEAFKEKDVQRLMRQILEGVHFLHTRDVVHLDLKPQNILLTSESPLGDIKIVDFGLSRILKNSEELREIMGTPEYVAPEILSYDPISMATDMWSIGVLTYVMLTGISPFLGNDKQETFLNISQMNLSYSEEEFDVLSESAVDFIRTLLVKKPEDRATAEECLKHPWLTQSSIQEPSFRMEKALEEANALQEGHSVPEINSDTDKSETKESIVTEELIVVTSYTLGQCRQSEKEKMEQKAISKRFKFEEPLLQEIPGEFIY

[5] = target: T2, Tyrosine-protein kinase ZAP-70 (Homo sapiens) (UniProt P43403)
T2 sequence (whole entry): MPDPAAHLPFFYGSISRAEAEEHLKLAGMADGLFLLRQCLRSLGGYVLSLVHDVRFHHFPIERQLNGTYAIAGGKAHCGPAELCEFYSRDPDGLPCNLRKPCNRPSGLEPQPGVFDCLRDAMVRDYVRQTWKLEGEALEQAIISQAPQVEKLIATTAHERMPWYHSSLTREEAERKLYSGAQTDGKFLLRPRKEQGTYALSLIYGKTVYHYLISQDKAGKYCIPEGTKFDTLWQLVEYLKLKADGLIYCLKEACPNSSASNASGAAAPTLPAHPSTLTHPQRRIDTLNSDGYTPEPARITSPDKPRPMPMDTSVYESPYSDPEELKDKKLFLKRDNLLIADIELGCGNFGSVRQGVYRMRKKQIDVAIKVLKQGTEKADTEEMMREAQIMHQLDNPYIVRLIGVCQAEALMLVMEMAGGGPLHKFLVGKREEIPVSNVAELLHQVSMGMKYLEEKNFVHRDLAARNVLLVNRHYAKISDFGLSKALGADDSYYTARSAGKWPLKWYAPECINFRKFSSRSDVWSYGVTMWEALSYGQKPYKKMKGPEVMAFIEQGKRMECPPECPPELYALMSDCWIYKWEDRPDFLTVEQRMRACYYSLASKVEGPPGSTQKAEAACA

[6] = target: Serine/threonine-protein kinase PRP4 homolog (Homo sapiens) (UniProt Q13523)
[7] = target: Serine/threonine-protein kinase pim-2 (Homo sapiens) (UniProt Q9P1W9)
Sequence of Serine/threonine-protein kinase pim-2 (Homo sapiens) (Q9P1W9 whole entry, looked up): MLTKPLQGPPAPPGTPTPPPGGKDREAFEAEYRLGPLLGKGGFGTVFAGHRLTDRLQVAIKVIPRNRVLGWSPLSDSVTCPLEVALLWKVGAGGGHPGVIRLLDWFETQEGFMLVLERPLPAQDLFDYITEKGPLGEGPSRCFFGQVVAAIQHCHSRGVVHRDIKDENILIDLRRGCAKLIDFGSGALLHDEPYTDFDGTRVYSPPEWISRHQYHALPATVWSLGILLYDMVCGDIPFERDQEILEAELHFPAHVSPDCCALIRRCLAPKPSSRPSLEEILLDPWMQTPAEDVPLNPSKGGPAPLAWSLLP

[8] = target: cAMP-dependent protein kinase catalytic subunit alpha (Homo sapiens) (UniProt P17612)
[9] = target: Mitogen-activated protein kinase kinase kinase 20 (Homo sapiens) (UniProt Q9NYL2)
Sequence of Mitogen-activated protein kinase kinase kinase 20 (Homo sapiens) (Q9NYL2 2-800 limits assumed): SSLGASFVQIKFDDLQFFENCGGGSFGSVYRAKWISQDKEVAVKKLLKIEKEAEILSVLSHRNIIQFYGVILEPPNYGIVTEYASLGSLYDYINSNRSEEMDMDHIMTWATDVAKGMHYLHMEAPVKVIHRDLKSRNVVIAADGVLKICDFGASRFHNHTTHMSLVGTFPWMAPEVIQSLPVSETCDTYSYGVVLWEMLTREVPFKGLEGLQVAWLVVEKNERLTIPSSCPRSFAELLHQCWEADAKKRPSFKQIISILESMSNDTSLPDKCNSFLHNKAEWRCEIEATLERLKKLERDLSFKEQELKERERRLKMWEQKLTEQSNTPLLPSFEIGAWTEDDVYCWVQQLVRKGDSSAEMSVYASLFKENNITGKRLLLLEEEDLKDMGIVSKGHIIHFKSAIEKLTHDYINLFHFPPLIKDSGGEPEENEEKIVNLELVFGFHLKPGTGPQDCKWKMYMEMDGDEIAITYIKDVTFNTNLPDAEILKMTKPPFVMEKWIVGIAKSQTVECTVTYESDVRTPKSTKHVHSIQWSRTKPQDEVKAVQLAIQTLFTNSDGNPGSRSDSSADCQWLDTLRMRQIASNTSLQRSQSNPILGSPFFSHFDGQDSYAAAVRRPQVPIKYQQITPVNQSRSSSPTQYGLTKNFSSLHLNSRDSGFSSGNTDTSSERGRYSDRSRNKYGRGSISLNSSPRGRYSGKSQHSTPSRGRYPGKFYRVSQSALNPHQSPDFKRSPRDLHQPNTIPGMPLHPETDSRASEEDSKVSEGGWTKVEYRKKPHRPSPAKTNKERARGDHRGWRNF

[10] = target: Fibroblast growth factor receptor 1 (Homo sapiens) (UniProt P11362)
Sequence of Fibroblast growth factor receptor 1 (Homo sapiens) (P11362 22-822 limits assumed): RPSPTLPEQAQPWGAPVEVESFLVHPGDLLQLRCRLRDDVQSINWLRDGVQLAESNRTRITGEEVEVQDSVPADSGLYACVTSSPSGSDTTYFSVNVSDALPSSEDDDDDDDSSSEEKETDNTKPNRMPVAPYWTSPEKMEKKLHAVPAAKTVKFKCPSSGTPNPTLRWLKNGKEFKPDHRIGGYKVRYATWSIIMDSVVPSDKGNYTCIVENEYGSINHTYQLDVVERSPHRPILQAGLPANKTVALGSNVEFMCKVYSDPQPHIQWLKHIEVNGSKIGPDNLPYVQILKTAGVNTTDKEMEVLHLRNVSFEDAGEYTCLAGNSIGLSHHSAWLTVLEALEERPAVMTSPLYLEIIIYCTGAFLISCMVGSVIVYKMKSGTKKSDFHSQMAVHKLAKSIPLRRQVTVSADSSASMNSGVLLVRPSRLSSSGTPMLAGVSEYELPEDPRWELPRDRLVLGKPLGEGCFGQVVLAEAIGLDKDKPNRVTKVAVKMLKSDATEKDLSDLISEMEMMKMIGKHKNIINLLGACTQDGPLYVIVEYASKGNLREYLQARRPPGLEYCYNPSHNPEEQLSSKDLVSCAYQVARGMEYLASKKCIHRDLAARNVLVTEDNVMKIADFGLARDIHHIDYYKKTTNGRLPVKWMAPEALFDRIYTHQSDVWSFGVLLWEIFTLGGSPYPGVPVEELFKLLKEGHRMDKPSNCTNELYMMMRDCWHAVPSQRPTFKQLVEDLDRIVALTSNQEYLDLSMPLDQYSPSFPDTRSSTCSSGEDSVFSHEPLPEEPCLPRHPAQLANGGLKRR

[11] = target: Calcium/calmodulin-dependent protein kinase type II subunit delta (Homo sapiens) (UniProt Q13557)
Sequence of Calcium/calmodulin-dependent protein kinase type II subunit delta (Homo sapiens) (Q13557 whole entry): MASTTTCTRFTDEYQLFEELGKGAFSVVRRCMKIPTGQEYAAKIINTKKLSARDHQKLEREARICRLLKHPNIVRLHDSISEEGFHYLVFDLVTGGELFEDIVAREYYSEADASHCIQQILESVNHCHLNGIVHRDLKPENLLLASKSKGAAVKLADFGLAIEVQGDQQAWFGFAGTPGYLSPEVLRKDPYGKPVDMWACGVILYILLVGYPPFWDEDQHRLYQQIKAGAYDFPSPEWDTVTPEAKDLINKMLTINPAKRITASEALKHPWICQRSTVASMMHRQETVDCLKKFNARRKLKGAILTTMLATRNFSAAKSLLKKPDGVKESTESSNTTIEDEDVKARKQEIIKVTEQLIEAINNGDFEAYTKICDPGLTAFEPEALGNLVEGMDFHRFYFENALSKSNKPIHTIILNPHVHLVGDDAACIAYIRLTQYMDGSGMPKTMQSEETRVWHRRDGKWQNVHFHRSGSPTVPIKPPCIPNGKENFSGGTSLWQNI

[12] = target: Serine/threonine-protein kinase 32B (Homo sapiens) (UniProt Q9NY57)
Sequence of Serine/threonine-protein kinase 32B (Homo sapiens) (Q9NY57 whole entry): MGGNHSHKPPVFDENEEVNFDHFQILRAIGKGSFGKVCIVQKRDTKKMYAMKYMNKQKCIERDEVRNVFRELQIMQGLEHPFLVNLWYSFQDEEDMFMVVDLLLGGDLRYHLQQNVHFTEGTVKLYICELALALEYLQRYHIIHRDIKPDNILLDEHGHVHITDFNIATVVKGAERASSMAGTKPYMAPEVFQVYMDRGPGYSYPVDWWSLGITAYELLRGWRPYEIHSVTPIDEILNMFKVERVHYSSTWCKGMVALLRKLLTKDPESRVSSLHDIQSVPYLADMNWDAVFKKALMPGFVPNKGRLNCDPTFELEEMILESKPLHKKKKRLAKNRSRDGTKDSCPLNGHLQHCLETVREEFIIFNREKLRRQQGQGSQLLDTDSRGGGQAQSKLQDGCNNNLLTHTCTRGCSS

[13] = target: T3, Serine/threonine-protein kinase tousled-like 1 (Homo sapiens) (UniProt Q9UKI8)
T3 sequence (whole entry): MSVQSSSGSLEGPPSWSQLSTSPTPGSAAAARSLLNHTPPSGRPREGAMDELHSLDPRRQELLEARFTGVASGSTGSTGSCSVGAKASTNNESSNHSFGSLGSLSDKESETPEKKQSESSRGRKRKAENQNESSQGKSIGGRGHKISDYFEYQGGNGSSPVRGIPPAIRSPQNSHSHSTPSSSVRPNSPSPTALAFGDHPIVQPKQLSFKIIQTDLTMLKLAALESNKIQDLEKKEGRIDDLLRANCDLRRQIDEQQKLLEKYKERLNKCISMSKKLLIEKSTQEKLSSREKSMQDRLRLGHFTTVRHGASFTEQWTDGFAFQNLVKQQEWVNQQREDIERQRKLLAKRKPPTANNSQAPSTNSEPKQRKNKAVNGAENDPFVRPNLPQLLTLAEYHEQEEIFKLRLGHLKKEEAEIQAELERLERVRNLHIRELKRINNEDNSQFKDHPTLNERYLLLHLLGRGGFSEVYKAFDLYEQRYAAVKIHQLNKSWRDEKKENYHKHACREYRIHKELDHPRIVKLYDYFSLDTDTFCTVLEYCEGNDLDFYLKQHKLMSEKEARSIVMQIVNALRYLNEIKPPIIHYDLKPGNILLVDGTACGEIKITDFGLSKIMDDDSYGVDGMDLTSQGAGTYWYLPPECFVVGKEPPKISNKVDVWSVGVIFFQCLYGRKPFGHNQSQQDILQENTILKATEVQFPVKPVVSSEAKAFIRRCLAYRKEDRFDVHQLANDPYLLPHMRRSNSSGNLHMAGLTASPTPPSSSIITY

[14] = target: Dual specificity protein kinase CLK4 (Homo sapiens) (UniProt Q9HAZ1)
[15] = target: Ribosomal protein S6 kinase alpha-4 (Homo sapiens) (UniProt O75676)
Sequence of Ribosomal protein S6 kinase alpha-4 (Homo sapiens) (O75676 whole entry, looked up): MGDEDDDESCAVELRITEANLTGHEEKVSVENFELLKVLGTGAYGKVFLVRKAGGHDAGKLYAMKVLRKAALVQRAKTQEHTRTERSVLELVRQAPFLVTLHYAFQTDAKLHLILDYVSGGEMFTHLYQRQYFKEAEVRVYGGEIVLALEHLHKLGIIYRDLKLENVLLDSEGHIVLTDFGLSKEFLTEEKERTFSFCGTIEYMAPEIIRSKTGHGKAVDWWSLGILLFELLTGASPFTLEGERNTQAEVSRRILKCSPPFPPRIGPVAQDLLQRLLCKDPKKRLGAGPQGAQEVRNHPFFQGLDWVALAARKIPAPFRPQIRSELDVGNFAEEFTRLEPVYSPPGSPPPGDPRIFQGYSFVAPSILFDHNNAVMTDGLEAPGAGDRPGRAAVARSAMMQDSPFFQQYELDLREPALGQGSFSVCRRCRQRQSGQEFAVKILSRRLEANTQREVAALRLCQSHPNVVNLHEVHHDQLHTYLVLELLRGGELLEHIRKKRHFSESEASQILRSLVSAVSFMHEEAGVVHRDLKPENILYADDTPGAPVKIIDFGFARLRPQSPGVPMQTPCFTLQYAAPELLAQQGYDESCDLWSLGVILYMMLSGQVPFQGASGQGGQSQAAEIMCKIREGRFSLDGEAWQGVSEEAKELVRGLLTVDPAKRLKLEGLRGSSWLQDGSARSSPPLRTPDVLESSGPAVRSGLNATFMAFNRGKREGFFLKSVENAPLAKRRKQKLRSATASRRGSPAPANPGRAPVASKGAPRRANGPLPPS

[16] = target: Ephrin type-A receptor 4 (Homo sapiens) (UniProt P54764)
Sequence of Ephrin type-A receptor 4 (Homo sapiens) (P54764 whole entry): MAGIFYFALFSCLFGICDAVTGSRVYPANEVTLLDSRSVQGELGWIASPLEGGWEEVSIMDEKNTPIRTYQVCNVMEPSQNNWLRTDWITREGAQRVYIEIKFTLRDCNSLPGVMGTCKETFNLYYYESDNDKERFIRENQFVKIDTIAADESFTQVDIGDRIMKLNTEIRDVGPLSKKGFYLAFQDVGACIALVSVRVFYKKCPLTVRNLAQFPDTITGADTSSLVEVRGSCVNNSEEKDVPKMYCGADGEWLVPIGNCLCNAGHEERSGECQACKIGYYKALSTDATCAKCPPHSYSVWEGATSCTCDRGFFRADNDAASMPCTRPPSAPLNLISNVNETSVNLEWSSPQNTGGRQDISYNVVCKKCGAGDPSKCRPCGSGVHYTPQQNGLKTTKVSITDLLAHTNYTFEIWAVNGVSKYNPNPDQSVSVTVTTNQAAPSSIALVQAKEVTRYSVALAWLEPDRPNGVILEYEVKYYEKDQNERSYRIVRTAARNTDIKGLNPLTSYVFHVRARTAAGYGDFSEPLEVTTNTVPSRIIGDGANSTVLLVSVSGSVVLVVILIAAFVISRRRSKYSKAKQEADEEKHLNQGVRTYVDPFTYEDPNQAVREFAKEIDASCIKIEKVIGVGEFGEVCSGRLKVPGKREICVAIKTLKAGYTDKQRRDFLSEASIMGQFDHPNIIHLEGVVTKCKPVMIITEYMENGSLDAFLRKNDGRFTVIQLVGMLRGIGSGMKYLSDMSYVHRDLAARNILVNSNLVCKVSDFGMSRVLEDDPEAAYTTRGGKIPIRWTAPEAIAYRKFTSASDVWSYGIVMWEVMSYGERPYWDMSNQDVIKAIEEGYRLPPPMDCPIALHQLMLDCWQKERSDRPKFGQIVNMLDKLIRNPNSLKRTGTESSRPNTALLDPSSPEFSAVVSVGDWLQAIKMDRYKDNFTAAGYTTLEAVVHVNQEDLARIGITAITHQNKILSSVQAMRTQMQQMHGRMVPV

Measured: residual activity

Cc1nc(C2CCN(C(=O)c3ccc(OC(F)(F)F)cc3N)CC2)c2ncc(N3CCN(C)CC3)cc2n1 [BAY-693]
inactive: [1] 100% | [2] 100% | [3] 84% | [4] 100% | [5] 100% | [6] 96% | [7] 100% | [8] 100% | [9] 95% | [10] 100% | [11] 100% | [12] 90% | [13] 100% | [14] 97% | [15] 93% | [16] 100%

CN1CCN(c2cnc3c(C4CCN(C(=O)c5ccc(OC(F)(F)F)cc5N)CC4)ncnc3c2)CC1 [BAY-885]
inactive: [1] 100% | [2] 100% | [3] 100% | [4] 92% | [5] 100% | [6] 100% | [7] 100% | [8] 100% | [9] 98% | [10] 100% | [11] 100% | [12] 87% | [13] 100% | [14] 98% | [15] 100% | [16] 100%
